For assay [1], the system named is HCT116 isogenic IDH1-R132H mutant cells. Description: Cellular 2-HG assay using HCT116 mutant IDH1 cells (R132H), RapidFire mass spectrometry. The assay is classed as cell-based. Particulars: Homo sapiens, read-out: HCT116 IDH1 R132H IC50 (Range). As to the method: (§1) Example 106—Cellular 2-HG assay using HCT116 mutant IDH1 cells
(§2) HCT116 isogenic IDH1-R132H and IDH1-R132C mutant cells were cultured in growth media (McCoy's 5 A, 10% fetal bovine serum, 1× antibiotic-antimycotic solution and 0.3 mg/mL G418) in 5% CO2 in an incubator at 37° C. To prepare the assay, cells were trypsinized and resuspended in assay media (McCoy's 5 A with no L-glutamine, 10% fetal bovine serum, 1× antibiotic-antimycotic solution and 0.3 mg/mL G418). An aliquot of 10,000 cells/100 μL was transferred to each well of a clear 96-well tissue culture plate. The cells were incubated in 5% CO2 at 37° C. in an incubator overnight to allow for proper cell attachment. An aliquot of 50 μL of compound containing assay media were then added to each well and the assay plate was kept in 5% CO2 at 37° C. in an incubator for 24 hours. The media was then removed from each well and 150 μL of a methanol/water mixture (80/20 v/v) was added to each well. The plates were kept at −80° C. freezer overnight to allow for complete cell lysis. An aliquot of 125 μL of extracted supernatant was analyzed by RapidFire high-throughout-mass spectrometry (Agilent) to determine the cellular 2-HG level. The IC50 of a given compound was calculated by fitting the dose response curve of cellular 2-HG inhibition at a given concentration with the four parameter logistic equation.

For assay [2], the target named is IDH1-R132H recombinant protein (Homo sapiens (Human), UniProt O75874, R132H). The assay is described as follows: IDH1-R132H enzymatic assay (inhibition of NADPH consumption, diaphorase/resazurin readout). The assay is classed as biochemical. Particulars: read-out: Enzyme IDH1 R132H IC50 (Range). The gist of the method: (§3)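 Compound was preincubated 15 min at 25 °C with 30 nM IDH1-R132H or 10 nM IDH1-R132C in Tris pH 7.5 buffer with MgCl2, BSA and Triton X-100. Reaction with 2 mM α-ketoglutarate and 20 μM NADPH (solution concentrations) ran 45 min at 25 °C. Remaining NADPH was detected via diaphorase/resazurin fluorescence (ex 535/em 590 nm), and IC50 came from four-parameter fits.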
A general note: Alamar Blue is a resazurin reagent that responds to reducing activity.

In assay [3] the target is IDH1-R132C recombinant protein (Homo sapiens (Human), UniProt O75874, R132C). The assay is described as follows: IDH1-R132C enzymatic assay (inhibition of NADPH consumption, diaphorase/resazurin readout). Conditions: read-out: Enzyme IDH1 R132C IC50 (Range). The format is biochemical. The gist of the method: as §3
For assay [4], the system named is HCT116 isogenic IDH1-R132C mutant cells. Description: Cellular 2-HG assay using HCT116 mutant IDH1 cells (R132C), RapidFire mass spectrometry. Conditions: Homo sapiens, read-out: HCT116 IDH1 R132C IC50 (Range). The assay is classed as cell-based. The protocol: as §1, §2
[5] abbreviates: HCT-116, cellular 2-HG level, HCT116 IDH1-R132H cells, 24 hours.
The mark [6] stands for this setting: HCT-116, cellular 2-HG level, HCT116 IDH1-R132C cells, 24 hours.

Where two headings read alike, the source gives them in different places.

IDH1-R132C recombinant protein, sequence (O75874 whole entry R132C): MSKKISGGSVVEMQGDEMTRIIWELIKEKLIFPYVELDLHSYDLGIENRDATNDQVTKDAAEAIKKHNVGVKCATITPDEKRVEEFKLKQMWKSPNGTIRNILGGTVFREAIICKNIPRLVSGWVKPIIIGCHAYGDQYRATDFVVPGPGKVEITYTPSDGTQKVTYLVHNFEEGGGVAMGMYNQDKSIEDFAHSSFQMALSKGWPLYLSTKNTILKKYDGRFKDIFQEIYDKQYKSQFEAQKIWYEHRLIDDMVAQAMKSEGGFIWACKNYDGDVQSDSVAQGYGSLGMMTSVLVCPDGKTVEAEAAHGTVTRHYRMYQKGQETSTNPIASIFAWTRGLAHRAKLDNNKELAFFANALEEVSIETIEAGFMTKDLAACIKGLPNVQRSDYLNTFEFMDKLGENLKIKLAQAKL
IDH1-R132H recombinant protein, sequence (O75874 whole entry R132H): as the sequence (O75874 whole entry R132C) above, with C132H counted along it

`C[C@H](Nc1nccc(-c2cncn2CC(F)(F)F)n1)c1cc2cc(Cl)ccc2[nH]c1=O` [Compound I-60, (S)-6-Chloro-3-(1-((4-(1-(2,2,2-trifluoroethyl)-1H-imidazol-5-yl)pyrimidin-2-yl)amino)ethyl)quinolin-2(1H)-one]: the concentration for half-maximal inhibition (IC50) – broadly, the concentration needed to halve the response being measured – is < 100 nM in assay [1] (setting [5]), < 100 nM in assay [2], 100 to 1000 nM in assay [3] and 100 to 1000 nM in assay [4] (setting [6]).
Regarding `Cc1nnnn1-c1ccnc(N[C@@H](C)c2cc3cc(Cl)ccc3[nH]c2=O)n1` [Compound I-59, (S)-6-chloro-3-(1-((4-(5-methyl-1H-tetrazol-1-yl)pyrimidin-2-yl)amino)ethyl)quinolin-2(1H)-one], the half-maximal inhibitory concentration (IC50) in assay [1] (setting [5]) was 100 to 1000 nM; in assay [2], < 100 nM; in assay [3] it was 100 to 1000 nM; in assay [4] (setting [6]) it was 100 to 1000 nM.
Take `CC(=O)Nc1ccnc(N[C@@H](C)c2cc3cc(Cl)ccc3[nH]c2=O)n1` [Compound I-25, (S)—N-(2-((1-(6-Chloro-2-oxo-1,2-dihydroquinolin-3-yl)ethyl)amino)pyrimidin-4-yl)acetamide]: the concentration for half-maximal inhibition (IC50) in assay [1] (setting [5]), in assay [2], in assay [3] and in assay [4] (setting [6]) was < 100 nM throughout.
In the case of `C[C@H](Nc1nccc(-c2cnc3ccccn23)n1)c1cc2cc(Cl)ccc2[nH]c1=O` [Compound I-63, (S)-6-chloro-3-(1-((4-(imidazo[1,2-a]pyridin-3-yl)pyrimidin-2-yl)amino)ethyl)quinolin-2(1H)-one], the IC50 in assay [1] (setting [5]) is 100 to 1000 nM; in assay [2], < 100 nM; in assay [3], < 100 nM; in assay [4] (setting [6]), 1000 to 10000 nM.
With `COC(=O)Nc1ccnc(N[C@@H](C)c2cc3cc(Cl)ccc3[nH]c2=O)n1` [Compound I-22, (S)-Methyl (2-((1-(6-chloro-2-oxo-1,2-dihydroquinolin-3-yl)ethyl)amino)pyrimidin-4-yl) carbamate], the half-maximal inhibitory concentration (IC50) in assay [1] (setting [5]) was < 100 nM; in assay [2], < 100 nM; in assay [3], 100 to 1000 nM; in assay [4] (setting [6]) it was < 100 nM.
For the compound `C[C@H](Nc1nccc(-n2nnnc2C2CC2)n1)c1cc2cc(Cl)cnc2[nH]c1=O` [Compound I-184], the IC50 in assay [1] (setting [5]), in assay [2], in assay [3] and in assay [4] (setting [6]) was 100 to 1000 nM throughout.
As for `C[C@H](Nc1nccc(-n2cnc3c2CCC3)n1)c1cc2cc(Cl)ccc2[nH]c1=O` [Compound I-55], the half-maximal inhibitory concentration (IC50) in assay [1] (setting [5]), in assay [2], in assay [3] and in assay [4] (setting [6]) was 100 to 1000 nM each time.
Regarding `C[C@H](Nc1nccc(N2CCCS2(=O)=O)n1)c1cc2cc(Cl)ccc2[nH]c1=O` [Compound I-12, (S)-6-Chloro-3-(1-((4-(1,1-dioxidoisothiazolidin-2-yl)pyrimidin-2-yl)amino)ethyl)quinolin-2(1H)-one], the IC50 is 100 to 1000 nM in assay [1] (setting [5]), 100 to 1000 nM in assay [2], 1000 to 10000 nM in assay [3] and 100 to 1000 nM in assay [4] (setting [6]).
Take `CC(Nc1nccc(N(C(C)C)S(C)(=O)=O)n1)c1cc2cc(Cl)ccc2[nH]c1=O` (stereo not shown) [Compound I-20]: the IC50 in assay [1] (setting [5]), in assay [2], in assay [3] and in assay [4] (setting [6]) was 100 to 1000 nM each time.
Take `C[C@H](Nc1nccc(-n2cccc2C(F)(F)F)n1)c1cc2cc(Cl)ccc2[nH]c1=O` [Compound I-65, (S)-6-Chloro-3-(1-((4-(2-(triflouromethyl)-1H-pyrrol-1-yl)pyrimidin-2-yl)amino)ethyl) quinolin-2(1H)-one]: the IC50 in assay [1] (setting [5]) is 100 to 1000 nM; in assay [2], 100 to 1000 nM; in assay [3] it was 1000 to 10000 nM; in assay [4] (setting [6]), 1000 to 10000 nM.
For the compound `COc1nc(N[C@@H](C)c2nc3cc(Cl)ccc3[nH]c2=O)ncc1C#N` [Compound I-156, (S)-2-((1-(7-Chloro-3-oxo-3,4-dihydroquinoxalin-2-yl)ethyl)amino)-4-methoxy pyrimidine-5-carbonitrile], the half-maximal inhibitory concentration (IC50) in assay [1] (HCT-116, 24 h) is < 100 nM; in assay [3], 100 to 1000 nM; in assay [4] (HCT-116, 24 h), 100 to 1000 nM.

Source of the values: patent US10280150B2 (FORMA TM2, Inc., priority 2014, dated 2019).
